Source: publication PMC6155600, “Design, Synthesis and Cellular Characterization of a Dual Inhibitor of 5-Lipoxygenase and Soluble Epoxide Hydrolase” (Molecules : A Journal of Synthetic Chemistry and Natural …, 2016)

Legend:
[1] = target: T1, 5-lipoxygenase (5-LO) (Homo sapiens, UniProt P09917); assay: purified recombinant 5-LO activity assay, arachidonic acid substrate, HPLC product analysis; format: biochemical
T1 construct: gene ALOX5
T1 sequence (P09917 1-674): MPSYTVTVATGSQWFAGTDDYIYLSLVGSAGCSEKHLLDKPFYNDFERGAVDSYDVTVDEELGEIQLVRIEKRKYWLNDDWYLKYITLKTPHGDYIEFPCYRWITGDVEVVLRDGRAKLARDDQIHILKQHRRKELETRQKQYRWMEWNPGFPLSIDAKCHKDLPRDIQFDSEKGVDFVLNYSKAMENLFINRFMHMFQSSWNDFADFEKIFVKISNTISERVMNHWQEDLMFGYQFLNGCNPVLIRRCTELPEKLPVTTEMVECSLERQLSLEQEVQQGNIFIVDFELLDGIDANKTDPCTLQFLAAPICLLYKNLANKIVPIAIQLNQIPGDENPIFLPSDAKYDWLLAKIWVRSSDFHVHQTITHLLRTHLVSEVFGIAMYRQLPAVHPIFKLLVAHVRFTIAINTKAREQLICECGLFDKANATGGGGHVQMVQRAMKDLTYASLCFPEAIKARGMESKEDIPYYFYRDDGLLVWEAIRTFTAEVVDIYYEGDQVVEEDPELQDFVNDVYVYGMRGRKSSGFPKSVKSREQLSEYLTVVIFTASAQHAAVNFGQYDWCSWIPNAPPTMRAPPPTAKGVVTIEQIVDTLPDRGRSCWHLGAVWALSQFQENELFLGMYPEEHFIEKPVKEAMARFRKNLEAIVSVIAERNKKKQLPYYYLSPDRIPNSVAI

[2] = target: T2, soluble epoxide hydrolase (sEH) (Homo sapiens, UniProt P34913); assay: fluorescence-based enzyme activity assay with recombinant human sEH (PHOME substrate); format: biochemical
T2 construct: gene EPHX2
T2 sequence (P34913 1-555): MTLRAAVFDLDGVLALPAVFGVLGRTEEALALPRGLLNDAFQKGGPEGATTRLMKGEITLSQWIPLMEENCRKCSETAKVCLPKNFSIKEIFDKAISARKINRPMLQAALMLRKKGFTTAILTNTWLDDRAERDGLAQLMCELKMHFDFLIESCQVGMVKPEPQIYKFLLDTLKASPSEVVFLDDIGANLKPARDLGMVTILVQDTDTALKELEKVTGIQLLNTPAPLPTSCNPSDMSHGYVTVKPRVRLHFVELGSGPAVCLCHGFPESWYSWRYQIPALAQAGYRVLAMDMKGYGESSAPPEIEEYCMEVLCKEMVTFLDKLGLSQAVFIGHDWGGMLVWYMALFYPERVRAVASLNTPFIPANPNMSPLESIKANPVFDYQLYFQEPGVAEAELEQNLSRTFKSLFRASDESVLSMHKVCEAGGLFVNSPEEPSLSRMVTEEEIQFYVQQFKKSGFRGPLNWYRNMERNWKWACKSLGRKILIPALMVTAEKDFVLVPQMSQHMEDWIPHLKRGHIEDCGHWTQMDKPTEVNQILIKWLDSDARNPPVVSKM

COc1ccc(CN(O)C(N)=O)cc1OCCCNC(=O)Nc1ccc(OC(F)(F)F)cc1 [compound 5, 1-(3-{5-(Hydroxyureido)methyl-2-methoxyphenoxy}propyl)-3-[4-(trifluoromethoxy)phenyl]urea]
IC50 [1]: 1300 nM
IC50 [2]: 29 nM
